These results are taken from patent US9309222B2, “Phenyl linked quinolinyl modulators of RORγt” (Janssen Pharmaceutica NV, priority 2012, dated 2016).

Assay [1] addresses T1, human RORγt ligand binding domain (RORγt LBD) (Homo sapiens, UniProt P51449).
T1 construct: His-tag (N); TurboTEV protease cleavage site (ENLYFQG) (N); made in house; host or cells: E. coli (pHIS1, modified pET vector)
T1 sequence (P51449 with tags, fused parts or gaps): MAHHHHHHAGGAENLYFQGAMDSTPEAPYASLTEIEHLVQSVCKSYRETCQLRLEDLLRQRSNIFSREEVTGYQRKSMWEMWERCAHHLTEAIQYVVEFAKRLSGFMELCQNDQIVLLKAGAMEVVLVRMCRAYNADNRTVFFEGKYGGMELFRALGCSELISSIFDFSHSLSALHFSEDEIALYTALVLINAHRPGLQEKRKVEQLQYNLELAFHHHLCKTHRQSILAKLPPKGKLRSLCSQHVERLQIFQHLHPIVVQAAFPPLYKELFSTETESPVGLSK
In words: RORγt ThermoFluor assay (thermal shift, ligand binding affinity). To be noted: estimated from concentration response of thermal shift. Summed up:
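Thermal shift of 0.065 mg/mL RORγt with 60 μM 1,8-ANS in 100 mM Hepes pH 7.0, 10 mM NaCl, 2.5 mM GSH, 0.002% Tween-20. Compounds in 1:2 series from 10 mM DMSO stock. Dye fluorescence (500 nm emission) tracked versus temperature; ΔTm used to derive KD.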

The target of a further assay is T2, human RORγt LBD (Homo sapiens, UniProt P51449).
T2 construct: expressed in transfected cells
T2 sequence (P51449 258-518): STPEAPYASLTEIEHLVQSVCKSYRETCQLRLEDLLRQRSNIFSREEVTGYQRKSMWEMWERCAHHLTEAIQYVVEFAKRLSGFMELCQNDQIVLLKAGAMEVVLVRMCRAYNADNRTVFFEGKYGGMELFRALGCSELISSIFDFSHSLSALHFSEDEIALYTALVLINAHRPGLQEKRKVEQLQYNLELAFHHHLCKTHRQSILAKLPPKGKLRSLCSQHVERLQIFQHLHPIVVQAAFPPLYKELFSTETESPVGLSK
In words: RORγt reporter assay (GAL4-RORγt LBD luciferase in HEK293T cells). To be noted: for IC50 / RORγt reporter Assay, % inhibition @ 6 μM: HEK293T cells; for IC50: 24 hours compound treatment; for inhibition at 6 µM: HEK-293T, read-out: RORγt reporter Assay, % inhibition @ 6 μM, HEK293T cells, 6 μM compound; for RORγt reporter Assay, % inhibition @ 6 μM: 6 μM compound. Format: cell-based. A digest of the protocol:
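HEK293T cells transiently co-transfected with pBIND (GAL4 DBD fused to wild-type human RORγt LBD, plus SV40-driven renilla luciferase) and pGL4.31 GAL4-responsive firefly luciferase reporter. Plated in phenol-red-free DMEM with 5% lipid-reduced FCS and treated with compound for 24 h. Firefly/renilla luminescence ratio plotted against compound concentration.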
Background: In a reporter assay the amount or activity of a reporter protein is the signal.

The subject of assay [2] is IL-17 production by CD4 T cells. In words: Human Th17 assay (IL-17 production by CD4 T cells under Th17 differentiation conditions). Format: cell-based. To be noted: IL-17 in supernatant after 3 days. A digest of the protocol: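 Primary CD4+ T cells from healthy-donor PBMC, preincubated 1 h with titrated compound (0.2% DMSO), then activated with anti-CD3/CD28 beads plus anti-IL4, anti-IFNγ, IL1β, IL23, IL6, TGFβ and IL2.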

What is called Kd is a measure of binding affinity in units of concentration. One may read the IC50 as the concentration that gives 50% inhibition. A higher IC50 goes with lower potency. The term inhibition denotes the relative decrease from the control value, in per cent.

Values joined by “and” are separate entries in the source; they are usually repeats but may differ in a detail not shown here. Equal entries are not always repeated. Structures can show the parent of a compound that is named as a salt.

As for `OC(c1ccc(Cl)cc1)(c1cccnc1)c1ccc2nc(Cl)c(-c3ccccc3)c(Cl)c2c1` (centres unmarked) [Example 17, (4-Chlorophenyl)(2,4-dichloro-3-phenylquinolin-6-yl)(pyridin-3-yl)methanol], in assay [1], the dissociation constant (Kd) was 210 nM. The IC50 against human RORγt LBD stood at 270 nM; in assay [2] (Homo sapiens, CD4+ T, 72 h) it was 940 nM. Besides, at human RORγt LBD, the inhibition at 6 µM came to 102%.
For `CN(C)c1nc2ccc(C(O)(c3ccncc3)c3ccncc3)cc2c(Cl)c1-c1ccccc1` [Example 37, [4-Chloro-2-(dimethylamino)-3-phenylquinolin-6-yl](dipyridin-4-yl)methanol•TFA], in that order: 200 nM, 190 nM, about 1000 nM and 91%.
As to `CN(C)c1nc2ccc(C(O)(c3ccc(F)cc3)c3cccnc3)cc2c(Cl)c1-c1ccccc1` (centres unmarked) [Example 38, [4-Chloro-2-(dimethylamino)-3-phenylquinolin-6-yl](4-fluorophenyl)pyridin-3-ylmethanol•TFA], the dissociation constant Kd in assay [1] is 37 nM. At human RORγt LBD, the IC50 is 110 nM and < 50 nM; the inhibition at 6 µM stood at 98%. In assay [2] (Homo sapiens, CD4+ T, 72 h), this molecule came in with an IC50 of 270 nM.
With `Cn1cncc1C(O)(c1ccc(Cl)cc1)c1ccc2nc(Cl)c(-c3ccccc3Cl)c(Cl)c2c1` (single isomer, unassigned) [Example 153b, (4-Chlorophenyl)(2,4-dichloro-3-(2-chlorophenyl)quinolin-6-yl)(1-methyl-1H-imidazol-5-yl)methanol], in assay [1], the Kd was 270 nM. At human RORγt LBD, the “RORγt reporter Assay, % inhibition @ 6 μM” value stood at 93% and the IC50 was determined as 690 nM. The 50% inhibitory concentration (IC50) in assay [2] turned out to be 1600 nM.
In the case of `CCc1nc2ccc(C(O)(c3ccc(F)cc3)c3cccnc3)cc2c(Cl)c1-c1ccccc1` (centres unmarked) [Example 30, (4-Chloro-2-ethyl-3-phenylquinolin-6-yl)(4-fluorophenyl)pyridin-3-ylmethanol•TFA], the dissociation constant (Kd) in assay [1] was 33 nM. Moreover, on human RORγt LBD, the concentration for half-maximal inhibition (IC50) was about 300 nM and the inhibition at 6 µM was 93%. Besides, the IC50 in assay [2] (Homo sapiens, CD4+ T, 72 h) was about 1000 nM.
On to `OC(c1cccnc1)(c1cccnc1)c1ccc2nc(Cl)c(-c3ccccc3)c(Cl)c2c1` [Example 24, (2,4-Dichloro-3-phenylquinolin-6-yl)(dipyridin-3-yl)methanol•TFA], for which the Kd in assay [1] was 24 nM. Besides, the IC50 is 79 nM at human RORγt LBD; 320 nM in assay [2] (Homo sapiens, CD4+ T, 72 h); about 200 nM in assay [2]. Further, the inhibition at 6 µM on human RORγt LBD worked out at 104%.
As to `OC(c1cccnc1)(c1ccc2nc(Cl)c(-c3ccccc3)c(Cl)c2c1)c1ccccn1` (centres unmarked) [Example 26, (2,4-Dichloro-3-phenylquinolin-6-yl)(pyridin-2-yl)pyridin-3-ylmethanol•TFA], in assay [1], the Kd is 1300 nM. At human RORγt LBD, 700 nM corresponded to half-maximal inhibition (IC50) and the inhibition at 6 µM stood at 100%. In assay [2] (Homo sapiens, CD4+ T, 72 h), this molecule gave a half-maximal inhibitory concentration (IC50) of 2800 nM.
For `CC(C)Oc1nc2ccc(C(O)(c3ccncc3)c3cncn3C)cc2c(N(C)C)c1-c1ccccc1` (centres unmarked) [Example 90, [4-(Dimethylamino)-2-(1-methylethoxy)-3-phenylquinolin-6-yl](1-methyl-1H-imidazol-5-yl)pyridin-4-ylmethanol•TFA] the same measures were 91 nM, 300 nM, 96% and 800 nM.
For `Cn1cncc1C(O)(c1ccc(Cl)cc1)c1cc2c(Cl)c(-c3ccccc3)c(Cl)nc2cc1F` (centres unmarked) [Example 161, (4-Chlorophenyl)(2,4-dichloro-7-fluoro-3-phenylquinolin-6-yl)(1-methyl-1H-imidazol-5-yl)methanol•TFA], in that order: 78 nM, 170 nM, 104% and 360 nM.
For `OC(c1ccncc1)(c1ccncc1)c1ccc2nc(Cl)c(-c3ccccc3)c(Cl)c2c1` [Example 21, (2,4-Dichloro-3-phenylquinolin-6-yl)(dipyridin-4-yl)methanol•TFA], in that order: 120 nM, 860 nM, 91% and about 900 nM.
With `OC(c1ccccc1)(c1cccnc1)c1ccc2nc(C(F)(F)F)c(-c3ccccc3)c(C(F)(F)F)c2c1` (centres unmarked) [Example 170, Phenyl(3-phenyl-2,4-bis(trifluoromethyl)quinolin-6-yl)(pyridin-3-yl)methanol], the Kd in assay [1] is 4.2 nM. Moreover, on human RORγt LBD, half-maximal inhibition (IC50) was put at 35 nM and the inhibition at 6 µM worked out at 98%. Also, the midpoint of inhibition in assay [2] (Homo sapiens, CD4+ T, 72 h), the IC50, lay at 96 nM.
Take `CCN(CC)c1nc2ccc(C(O)(c3cccnc3)c3cccc(Cl)c3)cc2c(C#N)c1-c1ccccc1` (centres unmarked) [Example 113, 6-[(3-Chlorophenyl)(hydroxy)pyridin-3-ylmethyl]-2-(diethylamino)-3-phenylquinoline-4-carbonitrile•TFA]: in assay [1], the dissociation constant Kd is 1800 nM. On human RORγt LBD, the IC50 amounted to 86 nM and the inhibition at 6 µM is 101%. This molecule also yielded a half-maximal inhibitory concentration (IC50) in assay [2] (Homo sapiens, CD4+ T, 72 h) of 250 nM.
Turning to `Cc1ccc(C(O)(c2cccc(Cl)c2)c2ccc3nc(Cl)c(-c4ccccc4)c(Cl)c3c2)cn1` (centres unmarked) [Example 70, (3-Chlorophenyl)(2,4-dichloro-3-phenylquinolin-6-yl)(6-methylpyridin-3-yl)methanol•TFA], the dissociation constant (Kd) in assay [1] was 770 nM. In addition, at human RORγt LBD, the IC50 was 47 nM and the inhibition at 6 µM came out at 95%. Besides, in assay [2] (Homo sapiens, CD4+ T, 72 h), half-maximal inhibition (IC50) was put at 630 nM.
As to `[O-][n+]1cccc(C(O)(c2cccc(Cl)c2)c2ccc3nc(C(F)(F)F)c(-c4ccccc4)c(C(F)(F)F)c3c2)c1` (centres unmarked) [Example 166, 3-((3-Chlorophenyl)(hydroxy)(3-phenyl-2,4-bis(trifluoromethyl)quinolin-6-yl)methyl)pyridine 1-oxide•TFA], the Kd in assay [1] is 36 nM. Also, the IC50 stood at 180 nM against human RORγt LBD and 150 nM in assay [2] (Homo sapiens, CD4+ T, 72 h). Besides, at human RORγt LBD, the inhibition at 6 µM is 103%.
For `Cc1nc(C(O)(c2ccc3nc(Cl)c(-c4ccccc4)c(Cl)c3c2)c2cncn2C)cs1` (centres unmarked) [Example 140, (2,4-Dichloro-3-phenylquinolin-6-yl)(1-methyl-1H-imidazol-5-yl)(2-methylthiazol-4-yl)methanol] the same measures were 560 nM, 320 nM, 1800 nM and 105%.
Regarding `COc1nc2c(C)cc(C(O)(c3ccc(F)cc3)c3cncn3C)cc2c(C#N)c1-c1cccc(F)c1` (single isomer, unassigned) [Example 180c, 3-(3-Fluorophenyl)-6-((4-fluorophenyl)(hydroxy)(1-methyl-1H-imidazol-5-yl)methyl)-2-methoxy-8-methylquinoline-4-carbonitrile], the dissociation constant Kd in assay [1] was 93 nM. The “RORγt reporter Assay, % inhibition @ 6 μM” value on human RORγt LBD was 99%. For the same molecule, the concentration for half-maximal inhibition (IC50) at human RORγt LBD is 170 nM; in assay [2] it was 97 nM.
Turning to `Cc1ncc(C(O)(c2ccc(Cl)cc2)c2ccc3nc(C#N)c(-c4ccccc4)c(Cl)c3c2)n1C` (centres unmarked) [Example 139, 4-Chloro-6-((4-chlorophenyl)(1,2-dimethyl-1H-imidazol-5-yl)(hydroxy)methyl)-3-phenylquinoline-2-carbonitrile•TFA], the dissociation constant (Kd) in assay [1] was 61 nM. For the same molecule, the IC50 against human RORγt LBD worked out at 310 nM; in assay [2] (Homo sapiens, CD4+ T, 72 h) it was 350 nM. Moreover, at human RORγt LBD, the inhibition at 6 µM turned out to be 102%.
For `Cc1ccc(C(O)(c2ccc3nc(Cl)c(-c4ccccc4)c(Cl)c3c2)c2cncn2C)c(C)n1` (centres unmarked) [Example 142, (2,4-Dichloro-3-phenylquinolin-6-yl)(2,6-dimethylpyridin-3-yl)(1-methyl-1H-imidazol-5-yl)methanol], in that order: 7.6 nM, 92 nM, 140 nM and 105%.
`COc1nc2c(C)cc(C(O)(c3ccc(F)cc3)c3cncn3C)cc2c(Cl)c1-c1cccc(F)c1` (single isomer, unassigned) [Example 178c, (4-Chloro-3-(3-fluorophenyl)-2-methoxy-8-methylquinolin-6-yl)(4-fluorophenyl)(1-methyl-1H-imidazol-5-yl)methanol]: the Kd in assay [1] was 29 nM. Further, on human RORγt LBD, the “RORγt reporter Assay, % inhibition @ 6 μM” value was 96% and the IC50 was 35 nM. This molecule also yielded an IC50 in assay [2] (Homo sapiens, CD4+ T, 72 h) of 45 nM.
